Assay results published in patent US11596639B2, “Substituted indole Mcl-1 inhibitors” (Vanderbilt University, priority 2016, dated 2023).
Read-outs that look alike come from different tables or passages of the source.

Legend:
[1] = system: H929 human cancer cell lines; test: Cellular viability / proliferation (Cell TiterGlo, 72 h); format: cell-based
Summary of the method: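 Top dose 50 μM, serially diluted 2-fold, applied one day after seeding (1,000 cells/well, 10% FBS), DMSO below 1%.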

Mcl-1 = Mcl-1 (Homo sapiens (Human), UniProt Q07820); test: Fluorescence polarization anisotropy (FPA) competition assay, FITC-Bak or FITC-Bim BH3 peptide; format: binding; conditions: read-out: Ki for Inhibition of Mcl-1 by FPA assay
[2] = Homo sapiens, NCI-H929, 72 h, read-out: GI50 on cellular proliferation of H929 human cancer cell lines, H929 cells, 72 h, Cell TiterGlo, 10% FBS

Chain of Mcl-1 (Q07820 172-327): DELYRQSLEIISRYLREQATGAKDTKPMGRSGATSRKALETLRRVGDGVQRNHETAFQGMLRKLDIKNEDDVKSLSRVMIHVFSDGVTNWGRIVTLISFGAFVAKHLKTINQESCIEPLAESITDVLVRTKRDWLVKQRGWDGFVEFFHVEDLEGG

Row | SMILES | GI50 [1, 2] [nM] | Ki (Mcl-1) [nM] | GI50 ([1]; read-out: GI50 on cellular proliferation of H929 human cancer cell lines, H929 cells, 72 h, Cell TiterGlo, 10% FBS) [nM] | GI50 ([1]; H929 cells, 72 h, Cell TiterGlo, 10% FBS, read-out: GI50 on cellular proliferation of H929 human cancer cell lines) [nM]
1 | Cc1cc(OCCCc2c3n(c4c(-c5c(C)nn(C)c5C)c(Cl)ccc24)CCCN(c2cn(CCN4CCOCC4)c4cc(C(=O)O)ccc24)C3=O)cc(C)c1Cl [Example 89, 3-(8-Chloro-11-(3-(4-chloro-3,5-dimethylphenoxy)propyl)-1-oxo-7-(1,3,5-trimethyl-1H-pyrazol-4-yl)-4,5-dihydro-1H-[1,4]diazepino[1,2-a]indol-2(3H)-yl)-1-(2-morpholinoethyl)-1H-indole-6-carboxylic acid] | 1300 | < 1 |  | 
2 | Cc1cc(OCCCc2c3n(c4c(-c5c(C)nn(C)c5C)c(Cl)ccc24)[C@H](C)CN(c2cn(C)c4ccc(C(=O)Nc5ccccc5)cc24)C3=O)cc(C)c1Cl [Example 285, 3-[(4R)-7-chloro-10-[3-(4-chloro-3,5-dimethyl-phenoxy)propyl]-4-methyl-1-oxo-6-(1,3,5-trimethylpyrazol-4-yl)-3,4-dihydropyrazino[1,2-a]indol-2-yl]-1-methyl-N-phenyl-indole-5-carboxamide] | 5300 | < 1 |  | 
3 | Cc1cc(OCCCc2c3n(c4c(-c5c(C)nn(C)c5C)c(Cl)ccc24)[C@H](C)CN(c2cn(C)c4ccc([N+](=O)[O-])cc24)C3=O)cc(C)c1Cl [Example 223, (4R)-7-chloro-10-[3-(4-chloro-3,5-dimethyl-phenoxy)propyl]-4-methyl-2-(1-methyl-5-nitro-indol-3-yl)-6-(1,3,5-trimethylpyrazol-4-yl)-3,4-dihydropyrazino[1,2-a]indol-1-one] | 5000 | 1.1 |  | 
4 | Cc1cc(OCCCc2c3n(c4c(-c5c(C)nn(C)c5C)c(Cl)ccc24)[C@H](C)CN(c2cn(COCC[Si](C)(C)C)c4ccc(C(=O)O)cc24)C3=O)cc(C)c1Cl [Example 231, (R)-3-(7-Chloro-10-(3-(4-chloro-3,5-dimethylphenoxy)propyl)-4-methyl-1-oxo-6-(1,3,5-trimethyl-1H-pyrazol-4-yl)-3,4-dihydropyrazino[1,2-a]indol-2(1H)-yl)-1-((2-(trimethylsilyl)ethoxy)methyl)-1H-indole-5-carboxylic acid] | 2700 | 1.2 |  | 
5 | Cc1cc(OCCCc2c3n(c4c(-c5c(C)nn(C)c5C)c(Cl)ccc24)[C@H](C)CN(c2cn(C)c4ccc(-c5nnc(C6CC6)o5)cc24)C3=O)cc(C)c1Cl [Example 423, (R)-7-Chloro-10-(3-(4-chloro-3,5-dimethylphenoxy)propyl)-2-(5-(5-cyclopropyl-1,3,4-oxadiazol-2-yl)-1-methyl-1H-indol-3-yl)-4-methyl-6-(1,3,5-trimethyl-1H-pyrazol-4-yl)-3,4-dihydropyrazino[1,2-a]indol-1(2H)-one] | 1700 | 2.3 |  | 
6 | Cc1cc(OCCCc2c3n(c4c(-c5c(C)nn(C)c5C)c(Cl)ccc24)[C@H](C)CN(c2cccc4c2c(C(=O)O)nn4C)C3=O)cc(C)c1Cl [Example 125, 4-[(4R)-7-chloro-10-[3-(4-chloro-3,5-dimethyl-phenoxy)propyl]-4-methyl-1-oxo-6-(1,3,5-trimethylpyrazol-4-yl)-3,4-dihydropyrazino[1,2-a]indol-2-yl]-1-methyl-indazole-3-carboxylic acid] | 7600 | < 1 |  | 
7 | Cc1cc(OCCCc2c3n(c4c(-c5c(C)nn(C)c5C)c(Cl)ccc24)[C@H](C)CN(c2cccc4c2cc(C#N)n4C)C3=O)cc(C)c1Cl [Example 301, 4-[(4R)-7-chloro-10-[3-(4-chloro-3,5-dimethyl-phenoxy)propyl]-4-methyl-1-oxo-6-(1,3,5-trimethylpyrazol-4-yl)-3,4-dihydropyrazino[1,2-a]indol-2-yl]-1-methyl-indole-2-carbonitrile] | 8300 | 2.8 |  | 
8 | Cc1cc(OCCCc2c3n(c4c(-c5c(C)nn(C)c5C)c(Cl)ccc24)[C@H](C)CN(c2cccc4cc(C(=O)O)n(Cc5ccccn5)c24)C3=O)cc(C)c1Cl [Example 247, 7-[(4R)-7-chloro-10-[3-(4-chloro-3,5-dimethyl-phenoxy)propyl]-4-methyl-1-oxo-6-(1,3,5-trimethylpyrazol-4-yl)-3,4-dihydropyrazino[1,2-a]indol-2-yl]-1-(2-pyridylmethyl)indole-2-carboxylic acid] |  | < 1 | < 200 | 
9 | Cc1cc(OCCCc2c3n(c4c(-c5c(C)nn(C)c5C)c(Cl)ccc24)[C@H](C)CN(c2cccc4cc(C(=O)O)cnc24)C3=O)cc(C)c1Cl [Example 105, (R)-8-(7-Chloro-10-(3-(4-chloro-3,5-dimethylphenoxy)propyl)-4-methyl-1-oxo-6-(1,3,5-trimethyl-1H-pyrazol-4-yl)-3,4-dihydropyrazino[1,2-a]indol-2(1H)-yl)quinoline-3-carboxylic acid] | 270 | < 1 |  | 
10 | Cc1cc(OCCCc2c3n(c4c(-c5c(C)nn(C)c5C)c(Cl)ccc24)[C@H](C)CN(c2cc(OCCN(C)C)cc4cc(C(=O)O)n(C)c24)C3=O)cc(C)c1Cl [Example 455, (R)-7-(7-Chloro-10-(3-(4-chloro-3,5-dimethylphenoxy)propyl)-4-methyl-1-oxo-6-(1,3,5-trimethyl-1H-pyrazol-4-yl)-3,4-dihydropyrazino[1,2-a]indol-2(1H)-yl)-5-(2-(dimethylamino)ethoxy)-1-methyl-1H-indole-2-carboxylic acid] | 220 | < 1 |  | 
11 | Cc1cc(OCCCc2c3n(c4c(-c5c(C)nn(C)c5C)c(Cl)ccc24)[C@H](C)CN(c2cc(OCc4ccccc4)cc4c2cc(C(=O)O)n4C)C3=O)cc(C)c1Cl [Example 310, (M, R)-6-(benzyloxy)-4-(7-chloro-10-(3-(4-chloro-3,5-dimethylphenoxy)propyl)-4-methyl-1-oxo-6-(1,3,5-trimethyl-1H-pyrazol-4-yl)-3,4-dihydropyrazino[1,2-a]indol-2(1H)-yl)-1-methyl-1H-indole-2-carboxylic acid] |  | 1.5 |  | 8900
12 | Cc1cc(OCCCc2c3n(c4c(-c5c(C)nn(C)c5C)c(Cl)ccc24)CCCN(c2cc(C(=O)O)cc4c2ccn4CCN(C)C)C3=O)cc(C)c1Cl [Example 11, 4-(8-Chloro-11-(3-(4-chloro-3,5-dimethylphenoxy)propyl)-1-oxo-7-(1,3,5-trimethyl-1H-pyrazol-4-yl)-4,5-dihydro-1H-[1,4]diazepino[1,2-a]indol-2(3H)-yl)-1-(2-(dimethylamino)ethyl)-1H-indole-6-carboxylic acid] | 9900 | 4 |  | 
13 | CC(=O)N1CCN(Cc2nc(C)c(-c3c(Cl)ccc4c(CCCOc5cc(C)c(Cl)c(C)c5)c5n(c34)[C@H](C)CN(c3cn(C)c4ccc(C(=O)O)cc34)C5=O)c(C)n2)CC1 [Example 433, (R)-3-(6-(2-((4-Acetylpiperazin-1-yl)methyl)-4,6-dimethylpyrimidin-5-yl)-7-chloro-10-(3-(4-chloro-3,5-dimethylphenoxy)propyl)-4-methyl-1-oxo-3,4-dihydropyrazino[1,2-a]indol-2(1H)-yl)-1-methyl-1H-indole-5-carboxylic acid] | 440 | 1.7 |  | 
14 | Cc1cc(OCCCc2c3n(c4c(-c5c(C)nn(C)c5C)c(Cl)ccc24)[C@H](C)CN(c2cccc4c(C(=O)O)cccc24)C3=O)cc(C)c1Cl [Example 63, (R)-5-(7-Chloro-10-(3-(4-chloro-3,5-dimethylphenoxy)propyl)-4-methyl-1-oxo-6-(1,3,5-trimethyl-1H-pyrazol-4-yl)-3,4-dihydropyrazino[1,2-a]indol-2(1H)-yl)-1-naphthoic acid] | 270 | < 1 |  | 
15 | Cc1cc(OCCCc2c3n(c4c(-c5c(C)nn(CC6CCOCC6)c5C)c(Cl)ccc24)[C@H](C)CN(c2cn(C)c4cc(C(=O)O)ccc24)C3=O)cc(C)c1Cl [Example 308, (R)-3-(7-chloro-10-(3-(4-chloro-3,5-dimethylphenoxy)propyl)-6-(3,5-dimethyl-1-((tetrahydro-2H-pyran-4-yl)methyl)-1H-pyrazol-4-yl)-4-methyl-1-oxo-3,4-dihydropyrazino[1,2-a]indol-2(1H)-yl)-1-methyl-1H-indole-6-carboxylic acid] | 410 | < 1 |  | 
16 | Cc1cc(OCCCc2c3n(c4c(-c5c(C)nn(C)c5C)c(Cl)ccc24)[C@H](C)CN(c2cccc4c2CCC4=O)C3=O)cc(C)c1Cl [Example 203, (R)-7-Chloro-10-(3-(4-chloro-3,5-dimethylphenoxy)propyl)-4-methyl-2-(1-oxo-2,3-dihydro-1H-inden-4-yl)-6-(1,3,5-trimethyl-1H-pyrazol-4-yl)-3,4-dihydropyrazino[1,2-a]indol-1(2H)-one] | 3900 | 6 |  | 
17 | Cc1cc(OCCCc2c3n(c4c(-c5c(C)nn(C)c5C)c(Cl)ccc24)[C@H](C)CN(c2cc(C(=O)O)cc4c2cnn4C)C3=O)cc(C)c1Cl [Example 84, (R)-4-(7-chloro-10-(3-(4-chloro-3,5-dimethylphenoxy)propyl)-4-methyl-1-oxo-6-(1,3,5-trimethyl-1H-pyrazol-4-yl)-3,4-dihydropyrazino[1,2-a]indol-2(1H)-yl)-1-methyl-1H-indazole-6-carboxylic acid] | 1200 | < 1 |  | 
18 | CCn1cc(N2C[C@@H](C)n3c(c(CCCOc4cc(C)c(Cl)c(C)c4)c4ccc(Cl)c(-c5c(C)nn(C)c5C)c43)C2=O)c2cc(C(=O)O)ccc21 [Example 164, (R)-3-(7-Chloro-10-(3-(4-chloro-3,5-dimethylphenoxy)propyl)-4-methyl-1-oxo-6-(1,3,5-trimethyl-1H-pyrazol-4-yl)-3,4-dihydropyrazino[1,2-a]indol-2(1H)-yl)-1-ethyl-1H-indole-5-carboxylic acid] | 920 | 1.7 |  | 
